According to PMC8784098 (Proceedings of the National Academy of Sciences of the …, 2022):

Assays:
PS1 fibroblasts [1] = test: Ceramide production in PS1 fibroblasts; format: cell-based, human; conditions: 10 μM, 30 min
PS1 fibroblasts [2] = test: Phospholipid accumulation by LipidTOX; format: cell-based, human; conditions: 10 μM, 24 h
secretory ASM = molecular target: T1, secretory ASM (Homo sapiens, UniProt P17405); test: Secretory ASM activity in PS1-derived supernatant medium; format: biochemical; conditions: P-sup, assay buffer with zinc, 10 μM, 1 h
T1 sequence (P17405 47-631): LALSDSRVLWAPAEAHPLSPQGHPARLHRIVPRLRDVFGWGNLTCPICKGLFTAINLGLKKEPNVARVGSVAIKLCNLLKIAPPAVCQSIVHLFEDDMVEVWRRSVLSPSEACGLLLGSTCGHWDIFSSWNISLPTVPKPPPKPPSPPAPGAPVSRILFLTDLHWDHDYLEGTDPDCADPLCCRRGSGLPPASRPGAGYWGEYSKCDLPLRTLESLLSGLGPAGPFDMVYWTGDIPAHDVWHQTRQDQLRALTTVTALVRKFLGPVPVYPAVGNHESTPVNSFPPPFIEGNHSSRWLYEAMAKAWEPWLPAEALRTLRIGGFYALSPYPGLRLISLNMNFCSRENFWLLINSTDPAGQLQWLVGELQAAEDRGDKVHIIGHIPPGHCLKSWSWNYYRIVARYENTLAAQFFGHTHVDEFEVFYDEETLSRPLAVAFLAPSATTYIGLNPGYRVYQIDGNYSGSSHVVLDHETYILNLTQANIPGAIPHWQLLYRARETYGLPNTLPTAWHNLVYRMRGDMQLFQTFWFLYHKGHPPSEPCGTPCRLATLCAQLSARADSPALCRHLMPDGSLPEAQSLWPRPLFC

ASM [3] = molecular target: T2, ASM (Homo sapiens, UniProt P17405); test: ASM activity after leupeptin preincubation in PS1 fibroblasts; format: cell-based; conditions: 25 µM leupeptin 24 h, then compound 30 min
T2 sequence (P17405 47-631): T1 sequence (P17405 47-631)

APP/PS1 mice = format: in vivo, mouse; conditions: p.o., KARI 201 1, 5, or 10 mg⋅kg−1, AMI 100 mg⋅kg−1
ASM [4] = molecular target: T2, ASM; test: ASM activity in AD patient; format: cell-based; conditions: PS1 fibroblasts, 10 μM, 30 min

CN(C)CCC=C1c2ccccc2CCc2ccccc21 [AMI, amitriptyline]
ceramide production (PS1 fibroblasts [1]): decreased | accumulation of phospholipids (LipidTOX MFI) (PS1 fibroblasts [2]): induced accumulation of phospholipids | secretory ASM activity (secretory ASM): did not inhibit ASM activity | effect of leupeptin preincubation on ASM inhibition (ASM [3]): prevented ASM inhibition | Survival (APP/PS1 mice): not affected | body weight (APP/PS1 mice): not affected | ASM activity in cell lysates (ASM [4]): efficiently inhibited
